In patent publication EP4722213A1, “NITROGEN-CONTAINING FUNCTIONAL GROUP-SUBSTITUTED PYRIDAZINOPYRIDONE DERIVATIVE AND USE THEREOF” (Sichuan Huiyu Pharmaceutical Co., Ltd., priority 2023, dated 2024):

Target: T1, SOS1 (Homo sapiens, UniProt Q07889)
T1 sequence (Q07889 1-1333): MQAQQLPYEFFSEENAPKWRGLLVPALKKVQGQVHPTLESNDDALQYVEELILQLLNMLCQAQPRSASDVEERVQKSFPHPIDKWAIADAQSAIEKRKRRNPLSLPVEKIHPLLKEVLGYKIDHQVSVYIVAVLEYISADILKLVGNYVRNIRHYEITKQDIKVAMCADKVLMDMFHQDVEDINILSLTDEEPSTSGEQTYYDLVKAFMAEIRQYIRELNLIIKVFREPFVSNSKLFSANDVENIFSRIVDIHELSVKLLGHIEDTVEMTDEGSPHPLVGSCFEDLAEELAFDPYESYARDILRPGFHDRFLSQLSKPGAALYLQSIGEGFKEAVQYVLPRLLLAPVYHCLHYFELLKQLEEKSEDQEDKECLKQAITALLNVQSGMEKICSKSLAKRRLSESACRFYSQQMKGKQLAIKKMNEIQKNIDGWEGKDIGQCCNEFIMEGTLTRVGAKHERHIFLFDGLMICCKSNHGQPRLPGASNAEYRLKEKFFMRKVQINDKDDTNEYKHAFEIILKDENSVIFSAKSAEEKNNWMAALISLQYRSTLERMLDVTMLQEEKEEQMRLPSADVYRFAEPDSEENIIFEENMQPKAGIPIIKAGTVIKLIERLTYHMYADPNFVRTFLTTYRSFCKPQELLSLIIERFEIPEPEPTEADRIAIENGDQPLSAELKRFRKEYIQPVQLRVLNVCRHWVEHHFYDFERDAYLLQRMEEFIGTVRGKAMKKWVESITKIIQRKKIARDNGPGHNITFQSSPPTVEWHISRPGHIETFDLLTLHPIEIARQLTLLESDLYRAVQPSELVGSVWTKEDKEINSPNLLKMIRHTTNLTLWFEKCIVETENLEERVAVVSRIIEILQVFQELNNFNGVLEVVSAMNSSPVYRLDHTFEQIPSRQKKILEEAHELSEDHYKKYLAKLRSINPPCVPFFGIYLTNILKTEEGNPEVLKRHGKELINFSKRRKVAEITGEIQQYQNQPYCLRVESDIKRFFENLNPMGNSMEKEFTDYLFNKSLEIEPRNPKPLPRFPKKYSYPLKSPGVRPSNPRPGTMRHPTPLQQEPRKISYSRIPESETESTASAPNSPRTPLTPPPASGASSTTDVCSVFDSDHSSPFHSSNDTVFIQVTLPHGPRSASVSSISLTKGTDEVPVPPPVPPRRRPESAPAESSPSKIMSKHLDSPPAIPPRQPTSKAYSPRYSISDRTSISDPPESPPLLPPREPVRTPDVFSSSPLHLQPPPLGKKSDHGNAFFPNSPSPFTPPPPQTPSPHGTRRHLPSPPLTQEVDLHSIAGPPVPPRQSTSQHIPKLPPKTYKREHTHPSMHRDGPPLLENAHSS
Experiment: biochemical

SMILES | IC50 [nM]
C[C@@H](Nc1nnc(-n2cncn2)c2cc(=O)n(C3CC3)cc12)c1cccc(C(F)F)c1F [Example 1, (R)-6-cyclopropyl-4-((1-(3-(difluoromethyl)-2-fluorophenyl)ethyl)amino)-1-(1H-1,2,4-triazol-1-yl) pyrido[3,4-d]pyridazin-7(6H)-one] | 13.5
C[C@@H](Nc1nnc(N2CCCC2)c2cc(=O)n(C3CC3)cc12)c1cccc(C(F)F)c1F [Example 4, (R)-6-cyclopropyl-4-((1-(3-(difluoromethyl)-2-fluorophenyl)ethyl)amino)-1-(pyrrolidin-1-yl) pyrido[3,4-d]pyridazin-7(6H)-one] | 4.9
C[C@@H](Nc1nnc(N2CCCCC2)c2cc(=O)n(C3(C)CC3)cc12)c1cccc(C(F)F)c1F [Example 6, (R)-4-((1-(3-(difluoromethyl)-2-fluorophenyl)ethyl)amino)-6-(1-methylcyclopropyl)-1-(piperidin-1-yl)pyrido[3,4-d]pyridazin-7(6H)-one] | 14.8
C[C@@H](Nc1nnc(N2CCOCC2)c2cc(=O)n(C3(C)CC3)cc12)c1cccc(C(F)F)c1F [Example 7, (R)-4-((1-(3-(difluoromethyl)-2-fluorophenyl)ethyl)amino)-6-(1-methylcyclopropyl)-1-morpholinopyrido[3 ,4-d]pyridazin-7(6H)-one] | 17.7
C[C@@H](Nc1nnc(N(C)C)c2cc(=O)n(C3(C)CC3)cc12)c1cccc(C(F)F)c1F [Example 8, (R)-4-((1-(3-(difluoromethyl)-2-fluorophenyl)ethyl)amino)-1-(dimethylamino)-6-(1-methylcyclopropyl) pyrido[3,4-d]pyridazin-7(6H)-one] | 7.7
C[C@@H](Nc1nnc(N2CCC(F)(F)C2)c2cc(=O)n(C3CC3)cc12)c1cccc(C(F)F)c1F [Example 14, (R)-6-cyclopropyl-4-((1-(3-(difluoromethyl)-2-fluorophenyl)ethyl)amino)-1-(3,3-difluoropyrrolidin-1-yl)pyrido[3,4-d]pyridazin-7(6H)-one] | 17.6
CCN(CC)c1nnc(N[C@H](C)c2cccc(C(F)F)c2F)c2cn(C3CC3)c(=O)cc12 [Example 17, (R)-6-cyclopropyl-1-(diethylamino)-4-((1-(3-(difluoromethyl)-2-fluorophenyl)ethyl)amino)pyrido[3,4-d]pyridazin-7(6H)-one] | 11.2
C[C@@H](Nc1nnc(N2CC3CC3C2)c2cc(=O)n(C3CC3)cc12)c1cccc(C(F)F)c1F (stereo partly drawn) [Example 18, 1-(3-azabicyclo[3.1.0]hexan-3-yl)-6-cyclopropyl-4-(((R)-1-(3-(difluoromethyl)-2-fluorophenyl)ethyl)amino)pyrido[3,4-d]pyridazin-7(6H)-one] | 5.7
C[C@@H](Nc1nnc(N2CCC(F)(F)CC2)c2cc(=O)n(C3CC3)cc12)c1cccc(C(F)F)c1F [Example 19, (R)-6-cyclopropyl-4-((1-(3-(difluoromethyl)-2-fluorophenyl)ethyl)amino)-1-(4,4-difluoropiperidin-1-yl)pyrido[3,4-d]pyridazin-7(6H)-one] | 27.2
C[C@@H](Nc1nnc(N2CC(F)(F)C2)c2cc(=O)n(C3CC3)cc12)c1cccc(C(F)F)c1F [Example 20, (R)-6-cyclopropyl-1-(3,3-difluoroazetidin-1-yl)-4-((1-(3-(difluoromethyl)-2-fluorophenyl)ethyl)amino)pyrido[3,4-d]pyridazin-7(6H)-one] | 23.8
C[C@@H](Nc1nnc(N2CC3CC3C2)c2cc(=O)n(C3(C)CC3)cc12)c1cccc(C(F)F)c1F (stereo partly drawn) [Example 21, 1-(3-azabicyclo[3.1.0]hexan-3-yl)-4-(((R)-1-(3-(difluoromethyl)-2-fluorophenyl)ethyl)amino)-6-(1-methylcyclopropyl) pyrido[3,4-d]pyridazin-7(6H)-one] | 6.9
C[C@@H](Nc1nnc(N2CC(F)(F)C2)c2cc(=O)n(C3(C)CC3)cc12)c1cccc(C(F)F)c1F [Example 22, (R)-1-(3,3-difluoroazetidin-1-yl)-4-((1-(3-(difluoromethyl)-2-fluorophenyl)ethyl)amino)-6-(1-methylcyclopropyl) pyrido[3,4-d]pyridazin-7(6H)-one] | 16.4
C[C@@H](Nc1nnc(N2CCC(F)(F)CC2)c2cc(=O)n(C3(C)CC3)cc12)c1cccc(C(F)F)c1F [Example 23, (R)-4-((1-(3-(difluoromethyl)-2-fluorophenyl)ethyl)amino)-1-(4,4-difluoropiperidin-1-yl)-6-(1-methylcyclopropyl) pyrido[3,4-d]pyridazin-7(6H)-one] | 22.4
C[C@@H](Nc1nnc(N2CCS(=O)(=O)CC2)c2cc(=O)n(C3CC3)cc12)c1cccc(C(F)F)c1F [Example 24, (R)-6-cyclopropyl-4-((1-(3-(difluoromethyl)-2-fluorophenyl)ethyl)amino)-1-(1,1-dioxidothiomorpholino)pyrido[3,4-d]pyridazin-7(6H)-one] | 12.7
C[C@@H]1CCCN1c1nnc(N[C@H](C)c2cccc(C(F)F)c2F)c2cn(C3CC3)c(=O)cc12 [Example 25, 6-cyclopropyl-4-(((R)-1-(3-(difluoromethyl)-2-fluorophenyl)ethyl)amino)-1-((R)-2-methylpyrrolidin-1-yl)pyrido[3,4-d]pyridazin-7(6H)-one] | 12
C[C@@H](Nc1nnc(N2CCC(F)(F)C2)c2cc(=O)n(C3(C)CC3)cc12)c1cccc(C(F)F)c1F [Example 26, (R)-4-((1-(3-(difluoromethyl)-2-fluorophenyl)ethyl)amino)-1-(3,3-difluoropyrrolidin-1-yl)-6-(1-methylcyclopropyl) pyrido[3,4-d]pyridazin-7(6H)-one] | 18.8
C[C@@H](Nc1nnc(N2CCS(=O)(=O)CC2)c2cc(=O)n(C3(C)CC3)cc12)c1cccc(C(F)F)c1F [Example 27, (R)-4-((1-(3-(difluoromethyl)-2-fluorophenyl)ethyl)amino)-1-(1,1-dioxidothiomorpholino)-6-(1-methylcyclopropyl) pyrido[3,4-d]pyridazin-7(6H)-one] | 16.5
C[C@@H]1CCCN1c1nnc(N[C@H](C)c2cccc(C(F)F)c2F)c2cn(C3(C)CC3)c(=O)cc12 [Example 28, 4-(((R)-1-(3-(difluoromethyl)-2-fluorophenyl)ethyl)amino)-6-(1-methylcyclopropyl)-1-((R)-2-methylpyrrolidin-1-yl)pyrido[3,4-d]pyridazin-7(6H)-one] | 5.7
CCN(CC)c1nnc(N[C@H](C)c2cccc(C(F)F)c2F)c2cn(C3(C)CC3)c(=O)cc12 [Example 29, (R)-1-(diethylamino)-4-(((R)1-(3-(difluoromethyl)-2-fluorophenyl)ethyl)amino)-6-(1-methylcyclopropyl) pyrido[3,4-d]pyridazin-7(6H)-one] | 10.6
C[C@@H](Nc1nnc(-n2cccn2)c2cc(=O)n(C3CC3)cc12)c1cccc(C(F)F)c1F [Example 30, (R)-6-cyclopropyl-4-((1-(3-(difluoromethyl)-2-fluorophenyl)ethyl)amino)-1-(1H-pyrazol-1-yl) pyrido[3,4-d]pyridazin-7(6H)-one] | 33.5
C[C@@H](Nc1nnc(-n2ccnc2)c2cc(=O)n(C3CC3)cc12)c1cccc(C(F)F)c1F [Example 31, (R)-6-cyclopropyl-4-((1-(3-(difluoromethyl)-2-fluorophenyl)ethyl)amino)-1-(1H-imidazol-1-yl)pyrido[3,4-d]pyridazin-7(6H)-one] | 19.5
C[C@@H](Nc1nnc(-n2nccn2)c2cc(=O)n(C3CC3)cc12)c1cccc(C(F)F)c1F [Example 32, (R)-6-cyclopropyl-4-((1-(3-(difluoromethyl)-2-fluorophenyl)ethyl)amino)-1-(2H-1,2,3-triazol-2-yl)pyrido[3,4-d]pyridazin-7(6H)-one] | 25.5
C[C@@H](Nc1nnc(-n2cccn2)c2cc(=O)n(C3(C)CC3)cc12)c1cccc(C(F)F)c1F [Example 33, (R)-4-((1-(3-(difluoromethyl)-2-fluorophenyl)ethyl)amino)-6-(1-methylcyclopropyl)-1-(1H-pyrazol-1-yl)pyrido[3,4-d]pyridazin-7(6H)-one] | 22.5
C[C@@H](Nc1nnc(-n2ccnc2)c2cc(=O)n(C3(C)CC3)cc12)c1cccc(C(F)F)c1F [Example 34, (R)-4-((1-(3-(difluoromethyl)-2-fluorophenyl)ethyl)amino)-1-(1H-imidazol-1-yl)-6-(1-methylcyclopropyl) pyrido[3,4-d]pyridazin-7(6H)-one] | 14.4
